Source: ChEMBL document CHEMBL1201862, “PubChem BioAssay data set” (2004)
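Cells were grown in 96-well plates and exposed to each compound for 48 hours at five concentrations; endpoints were interpolated linearly between bracketing concentrations, or set to the highest concentration if not reached. GI50 is the concentration that inhibits growth by half.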 Calls of active or inactive are those of the source. No stated cut-off is given here; in the data, active = GI50 up to about 1.1 µM and inactive = higher.

How the values were obtained:
Experiment in all cases: NCI anticancer screen, dose series, 48 h
786-0 = tested on: 786-0
A498 = tested on: A498
A549 = tested on: A549
BT-549 = tested on: BT-549
CAKI-1 = tested on: CAKI-1
HCC 2998 = tested on: HCC 2998
Hs-578T = tested on: Hs-578T
K562 = tested on: K562
MDA-N = tested on: MDA-N
NCI-H23 = tested on: NCI-H23
NCI-H522 = tested on: NCI-H522
OVCAR-3 = tested on: OVCAR-3
RXF 393 = tested on: RXF 393
SF-268 = tested on: SF-268
SF-295 = tested on: SF-295
SK-OV-3 = tested on: SK-OV-3
SN12C = tested on: SN12C
U-251 = tested on: U-251
UACC-257 = tested on: UACC-257
UO-31 = tested on: UO-31

Row | SMILES | GI50 (786-0) | GI50 (A498) | GI50 (A549) | GI50 (BT-549) | GI50 (CAKI-1) | GI50 (HCC 2998) | GI50 (Hs-578T) | GI50 (K562) | GI50 (MDA-N) | GI50 (NCI-H23) | GI50 (NCI-H522) | GI50 (OVCAR-3) | GI50 (RXF 393) | GI50 (SF-268) | GI50 (SF-295) | GI50 (SK-OV-3) | GI50 (SN12C) | GI50 (U-251) | GI50 (UACC-257) | GI50 (UO-31)
1 | O=C1N[C@H]2C(=O)c3c(Br)sc(Br)c3[C@H]2O1 | 8.26 µM (inactive) | 18.7 µM (inactive) | 19.4 µM (inactive) | 14.5 µM (inactive) | 4.53 µM (inactive) | 11.7 µM (inactive) | 18.7 µM (inactive) | 2.66 µM (inactive) | 7.01 µM (inactive) | 6.44 µM (inactive) | 1.55 µM (inactive) | 3.11 µM (inactive) | 3.18 µM (inactive) | 4.1 µM (inactive) | 18.5 µM (inactive) | 18.4 µM (inactive) | 4.76 µM (inactive) | 3.48 µM (inactive) | 8.07 µM (inactive) | 1.86 µM (inactive)
2 | O=C1Nc2ccc(S(=O)(=O)O)cc2/C1=C1/Nc2ccc(Br)cc2C1=O | > 100 µM (inactive) | > 100 µM (inactive) | > 100 µM (inactive) | > 100 µM (inactive) | > 100 µM (inactive) | > 100 µM (inactive) | > 100 µM (inactive) | > 100 µM (inactive) | > 100 µM (inactive) | > 100 µM (inactive) | > 100 µM (inactive) | > 100 µM (inactive) | > 100 µM (inactive) | > 100 µM (inactive) | > 100 µM (inactive) | > 100 µM (inactive) | > 100 µM (inactive) | > 100 µM (inactive) | > 100 µM (inactive) | > 100 µM (inactive)
3 | CCCCCCCCCCCCCCCCCCNc1ccn(C2OC(COP(=O)(O)OCC(COP(=O)(O)OCC3OC(n4cc(C)c(=O)[nH]c4=O)CC3N=[N+]=[N-])OCCCCCCCCCCCCCCCCCC)C(O)C2O)c(=O)n1 (stereo not given) | 54.1 µM (inactive) | > 100 µM (inactive) | 51.6 µM (inactive) | 90.4 µM (inactive) | > 100 µM (inactive) | 99.1 µM (inactive) | > 100 µM (inactive) | > 100 µM (inactive) | > 100 µM (inactive) | 77.4 µM (inactive) | 12.6 µM (inactive) | > 100 µM (inactive) | 51.6 µM (inactive) | 50.6 µM (inactive) | > 100 µM (inactive) | > 100 µM (inactive) | > 100 µM (inactive) | 12.8 µM (inactive) | 50.1 µM (inactive) | 17.7 µM (inactive)
4 | CCOC(=O)Nc1cc2c(c(N)n1)N=C(c1ccc3ccccc3c1)CN2 | 0.0809 µM (active) | 0.861 µM (active) | 0.299 µM (active) | 1.75 µM (inactive) | 1.25 µM (inactive) | 0.215 µM (active) | 0.0302 µM (active) | < 0.01 µM (active) | < 0.01 µM (active) | 0.325 µM (active) | 0.0769 µM (active) | 0.0494 µM (active) | 0.105 µM (active) | 1.92 µM (inactive) | 0.0281 µM (active) | 0.2 µM (active) | 0.0711 µM (active) | 0.0339 µM (active) | 0.815 µM (active) | 0.301 µM (active)
5 | Clc1ccc(C(c2ccccc2Cl)C(Cl)Cl)cc1 (stereo not given) [MITOTANE] | 19.2 µM (inactive) | 20.2 µM (inactive) | 15.1 µM (inactive) | 1.59 µM (inactive) | 13.1 µM (inactive) | 12.7 µM (inactive) | 3.26 µM (inactive) | 16.3 µM (inactive) | 18 µM (inactive) | 19 µM (inactive) | 16.7 µM (inactive) | 15.6 µM (inactive) | 11.6 µM (inactive) | 18.5 µM (inactive) | 16.2 µM (inactive) | 18.1 µM (inactive) | 16.7 µM (inactive) | 16.6 µM (inactive) | 19.4 µM (inactive) | 16.9 µM (inactive)
6 | CC1=NN(c2ccc(S(=O)(=O)O)cc2)C2(C1)SCC(=O)N2c1nc2ccccc2s1 (stereo not given) | > 100 µM (inactive) | > 100 µM (inactive) | > 100 µM (inactive) | > 100 µM (inactive) | > 100 µM (inactive) | > 100 µM (inactive) | > 100 µM (inactive) | > 100 µM (inactive) | > 100 µM (inactive) | > 100 µM (inactive) | > 100 µM (inactive) | > 100 µM (inactive) | > 100 µM (inactive) | > 100 µM (inactive) | > 100 µM (inactive) | > 100 µM (inactive) | > 100 µM (inactive) | > 100 µM (inactive) | > 100 µM (inactive) | > 100 µM (inactive)
7 | O=C(O)C1CC=CCC1C(=O)Nc1cccc(O)c1 (stereo not given) | > 100 µM (inactive) | > 100 µM (inactive) | > 100 µM (inactive) | > 100 µM (inactive) | > 100 µM (inactive) | > 100 µM (inactive) | > 100 µM (inactive) | > 100 µM (inactive) | > 100 µM (inactive) | > 100 µM (inactive) | > 100 µM (inactive) | > 100 µM (inactive) | > 100 µM (inactive) | > 100 µM (inactive) | > 100 µM (inactive) | > 100 µM (inactive) | > 100 µM (inactive) | > 100 µM (inactive) | > 100 µM (inactive) | > 100 µM (inactive)
8 | Cn1c(=O)cc(/N=N\c2ccc(Cl)c(Cl)c2)[nH]c1=O | 17.6 µM (inactive) | > 100 µM (inactive) | > 100 µM (inactive) | 29 µM (inactive) | 13.4 µM (inactive) | 56.8 µM (inactive) | 33.4 µM (inactive) | 28.1 µM (inactive) | 18.7 µM (inactive) | 37.3 µM (inactive) | 25.6 µM (inactive) | 18.7 µM (inactive) | 23.3 µM (inactive) | 20.1 µM (inactive) | > 100 µM (inactive) | > 100 µM (inactive) | 41.1 µM (inactive) | 23.3 µM (inactive) | 33.5 µM (inactive) | > 100 µM (inactive)
9 | CC1c2ccccc2Cn2cc3c(c21)C(=O)c1cccc(OP(=O)(O)OCc2ccccc2)c1C3=O (stereo not given) | > 100 µM (inactive) | > 100 µM (inactive) | > 100 µM (inactive) | > 100 µM (inactive) | > 82.8 µM (inactive) | > 100 µM (inactive) | > 100 µM (inactive) | > 74.6 µM (inactive) | > 100 µM (inactive) | > 100 µM (inactive) | > 100 µM (inactive) | > 100 µM (inactive) | > 100 µM (inactive) | > 100 µM (inactive) | > 100 µM (inactive) | > 100 µM (inactive) | > 100 µM (inactive) | > 100 µM (inactive) | > 100 µM (inactive) | > 78.3 µM (inactive)
10 | CC(=O)OC1CCC2(C)C(=CCC3C4CCC5(OC6CC(C)CN(C(C)=O)C6C5C)C(C)=C4C(=O)C32)C1 (stereo not given) | 28.1 µM (inactive) | 15.8 µM (inactive) | 14.3 µM (inactive) | 15 µM (inactive) | 19.6 µM (inactive) | 13.7 µM (inactive) | 16 µM (inactive) | 16.3 µM (inactive) | 23.6 µM (inactive) | 15 µM (inactive) | 14.9 µM (inactive) | 18.8 µM (inactive) | 16.6 µM (inactive) | 16 µM (inactive) | 19.1 µM (inactive) | 26.5 µM (inactive) | 21.6 µM (inactive) | 16.2 µM (inactive) | 13.6 µM (inactive) | 31.9 µM (inactive)
11 | Cc1cccc2c(O)c3c(O)cc(O)cc3nc12 | > 10 µM (inactive) | > 10 µM (inactive) | > 10 µM (inactive) | 3.61 µM (inactive) | > 10 µM (inactive) | > 10 µM (inactive) | > 10 µM (inactive) | > 10 µM (inactive) | > 10 µM (inactive) | > 10 µM (inactive) | > 10 µM (inactive) | > 10 µM (inactive) | > 10 µM (inactive) | > 10 µM (inactive) | > 10 µM (inactive) | > 10 µM (inactive) | > 10 µM (inactive) | > 10 µM (inactive) | > 10 µM (inactive) | > 10 µM (inactive)
12 | COC(=O)/C=C/C(=O)Nc1cc(Cl)c(Cl)cc1CC(=O)N(C)[C@H]1CCCC[C@@H]1N1CCCC1 | 3.83 µM (inactive) | 14.4 µM (inactive) | 21.5 µM (inactive) | 12.9 µM (inactive) | 5.37 µM (inactive) | 7.67 µM (inactive) | 18.1 µM (inactive) | 3.72 µM (inactive) | 6.61 µM (inactive) | 13.8 µM (inactive) | 1.79 µM (inactive) | 3.27 µM (inactive) | 4.01 µM (inactive) | 18.7 µM (inactive) | 18.3 µM (inactive) | 18.1 µM (inactive) | 10.2 µM (inactive) | 14.8 µM (inactive) | 3.05 µM (inactive) | 4.52 µM (inactive)
13 | COc1ccc2nc3cc(Cl)ccc3c(Nc3ccccc3-c3ccccc3Nc3c4ccc(Cl)cc4nc4ccc(OC)cc34)c2c1 | 26.7 µM (inactive) | > 56.5 µM (inactive) | 45.2 µM (inactive) | 15.9 µM (inactive) | 21.3 µM (inactive) | 31.6 µM (inactive) | 27.7 µM (inactive) | 4.63 µM (inactive) | 3.43 µM (inactive) | 21.7 µM (inactive) | 8.43 µM (inactive) | 45.4 µM (inactive) | 14.9 µM (inactive) | 31.9 µM (inactive) | 33 µM (inactive) | > 75.7 µM (inactive) | 32.2 µM (inactive) | 37.3 µM (inactive) | 27.5 µM (inactive) | 26.9 µM (inactive)
14 | CC12c3c4cccc3Oc3cc(N)cc(c31)Oc1cc(N)cc(c12)O4 | 2.56 µM (inactive) | 2.74 µM (inactive) | 3.77 µM (inactive) | 3.84 µM (inactive) | 9.86 µM (inactive) | 4.61 µM (inactive) | 6.18 µM (inactive) | 4.18 µM (inactive) | 1.31 µM (inactive) | 8.43 µM (inactive) | 2.24 µM (inactive) | 2.41 µM (inactive) | 0.408 µM (active) | 4.31 µM (inactive) | 2.53 µM (inactive) | 4.11 µM (inactive) | 8.28 µM (inactive) | 6.93 µM (inactive) | 5.71 µM (inactive) | 17.7 µM (inactive)
